According to ChEMBL document CHEMBL5329169, “Recent developments in membrane targeting antifungal agents to mitigate antifungal resistance” (2023):
≈ marks a conversion by molar mass, not a printed value. Values belong to the compound of their own block, whether it stands above or below them.

Tests used:
Type in all cases: functional
Candida albicans [1] = experiment: Antifungal activity against Candida albicans ATCC 10231 assessed as fungal growth inhibition measured after 24 hrs by two fold serial dilution technique
Candida albicans [2] = experiment: Antifungal activity against Candida albicans SC5314 assessed as fungal growth inhibition measured after 20 hrs by microplate assay
Cryptococcus neoformans = experiment: Antifungal activity against Cryptococcus neoformans H99 assessed as fungal growth inhibition measured after 20 hrs by microplate assay
Candida albicans [3] = experiment: Antifungal activity against Candida albicans assessed as fungal growth inhibition measured after 48 hrs by broth microdilution assay
Candida albicans [4] = experiment: Antifungal activity against Candida albicans SC5314 assessed as log reduction in fungal growth at 2x MIC measured after 6 hrs

Compound: CC[n+]1ccn(CCC[C@@H](C)[C@H]2CC[C@H]3[C@@H]4CC[C@@H]5C[C@H](O)CC[C@]5(C)[C@H]4CC[C@]23C)c1.[I-]
MIC80 (Candida albicans [1]): 0.5 µg/mL

Compound: C[C@H](CCC(=O)O)[C@H]1CC[C@H]2[C@@H]3CC[C@@H]4C[C@H](O)CC[C@]4(C)[C@H]3CC[C@]12C [LITHOCHOLIC ACID]
MIC80 (Candida albicans [3]): 3.12 µg/mL (≈ 8.29 µM)

Compound: H-GIWKKWIKKWLKKLKNLF-NH2
Activity (Candida albicans [4]): 5.55 log reduction

Next, values leading:

MIC80 (Candida albicans [2]): 12.5 µg/mL (≈ 29.4 µM)
MIC80 (Cryptococcus neoformans): 3.1 µg/mL (≈ 7.28 µM)
Compound: CCCCCCCCCCN(Cc1cccc2ccccc12)C(=O)C(N)CCCCN (stereo unspecified)

MIC80 (Candida albicans [1]): 0.25 µg/mL
Compound: C[C@H](CCCn1cc[n+](C)c1)[C@H]1CC[C@H]2[C@@H]3CC[C@@H]4C[C@H](O)CC[C@]4(C)[C@H]3CC[C@]12C.[I-]
